Results reported in US20070248646A1, “Use of azurocidin inhibitors in prevention and treatment of ocular vascular leakage” (priority 2006, published 2007).

B1: azurocidin (protein, UniProt P20160 27-248, looked up)
Azurocidin: IVGGRKARPRQFPFLASIQNQGRHFCGGALIHARFVMTAASCFQSQNPGVSTVVLGAYDLRRRERQSRQTFSISSMSENGYDPQQNLNDLMLLQLDREANLTSSVTILPLPLQNATVEAGTRCQVAGWGSQRSGGRLSRFPRFVNVTVTPEDQCRPNNVCTGVLTRRGGICNGDGGTPLVCEGLAHGVASFSLGPCGRGPDFFTRVALFRDWIDGVLNNPGP
notes: human neutrophil azurocidin

Experiments:
isolated leukocytes = conditions: VEGF 5-500 ng/ml, 20 minutes
Experimental: Additionally, in vitro it is investigated whether VEGF can cause the release of AZ from isolated leukocytes. The supernatant of VEGF-treated leukocytes is used to detect AZ using a Western Blot. Briefly, 10-20 ml of human blood is obtained by phlebotomy from healthy volunteers of both genders and all age groups. Leukocyte subtypes (i.e., neutrophils) are isolated using a percoll gradient technique. Then, 1-2×10^6 leukocytes are incubated for 20 minutes at room temperature with different concentrations (5-500 ng/ml) of human VEGF isoforms (121, 165, and 189) in a total volume of 200-300 μl of 1% FBS-containing PBS. Samples are then centrifuged at 1,500 rpm for 10 minutes, and 150-200 μl of the supernatant is collected for AZ-detection using the Western Blot technique with a commercially available antibody against human AZ (R&D systems).

[1] = tested on: VEGF-induced blood retinal barrier breakdown; assay: VEGF-induced blood retinal barrier breakdown (Evans Blue); assay type: in vivo, Brown Norway rats; conditions: 24 hours after intravitreal 50 ng VEGF
Experimental: (§1) This study employed Brown Norway rats, AZ (1 μg, 10 μg, 20 μg), PBS, aprotinin, VEGF164, and polyclonal anti-AZ antibody (1 μg). Briefly, Brown Norway rats received intravitreal injections of AZ (1 μg, 10 μg and 20 μg) in one eye and PBS in the contralateral eye. BRB breakdown was quantified using the Evans Blue (EB) technique at 1 hour, 3 hours, and 24 hours after intravitreal injection of AZ or PBS. To assess whether AZ induced retinal leukostasis, firm leukocyte adhesion was quantified at 3 hours and 24 hours post AZ injection (10 μg) using the ex vivo conconavalin leukostasis assay. To block AZ, rats were treated with a single intravenous injection of aprotinin (30,000KIU), prior to the intravitreal injections. To investigate whether AZ was involved in VEGF-induced BRB breakdown, rats received intravitreal injections of 50 ng recombinant mouse VEGF164 in one eye and PBS in the other eye and were treated intravenously with aprotinin (50,000KIU every eight hours) or polyclonal anti-AZ antibody (1 μg). BRB breakdown and retinal leukostasis were quantified 24 hours after VEGF injection.
Rats received intravitreous injections of 5 μl of sterile phosphate-buffered saline (PBS) containing 50 ng VEGF164 (R&D Systems, Minneapolis, Minn.) in one eye and 5 μl of sterile phosphate-buffered saline (PBS) in the contralateral eye. The retinas were analyzed for leakage 24 hours after VEGF injection.
In a second group, the rats were additionally treated intravenously with aprotinin (Trasylol®, Bayer Pharmaceuticals). 50,000KIU of aprotinin (5 ml of Trasylol®) was administered intravenously through the tail vein 1 hour before, as well as 8 hours and 16 hours after, the intravitreal injection of VEGF. The retinas were analyzed 24 hours after VEGF administration.
In a third group, rats were treated with intravitreous injections of 1 μg of goat anti-human azurocidin polyclonal antibody (5 μl of a 200 μg/ml antibody solution, Santa Cruz biotechnology) or control goat isotype IgG (R&D system) in the VEGF injected eye 6 hours after VEGF administration.
Retinal vascular permeability was quantified as previously described (Qaum et al. (2002) supra, Xu et al. (2001) INVEST. OPHTHALMOL. VIS. SCI. 42; 789-94). After the animals were deeply anesthetized, Evans blue dye (Sigma) dissolved in normal saline (30 mg/ml) was injected through the tail vein over 10 seconds at a dosage of 45 mg/kg. Blood samples were obtained from the left ventricle, just before perfusion at 2 hours, to obtain the time-average Evans blue dye plasma concentration. These blood samples were centrifuged at 12,000 rpm for 15 minutes and diluted to 1/10,000th of their initial concentration in formamide (Sigma). The background-subtracted absorbance was determined by measuring each sample at 620 nm (the absorbance maximum for Evans blue dye in formamide) and 740 nm (the absorbance minimum) with a spectrophotometer. The concentration of dye in the plasma was calculated from a standard curve of Evans blue dye in formamide. After the dye had circulated for 2 hours, the chest cavity was opened, and the rats were perfused through the left ventricle with 1% paraformaldehyde in citrate buffer (0.05 M, pH 3.5) at a physiological pressure of 120 mm Hg. The retinas were then carefully dissected under an operating microscope. After measurement of the retinal weight, Evans blue dye was extracted by incubating each retina in 0.180 ml of formamide for 18 hours at 70° C. The extract was ultracentrifuged at a speed of 14,000 rpm for 60 minutes at 25° C. Sixty microliters of the supernatant was used for spectrophotometric measurement at 620 nm and 740 nm. The background-subtracted absorbance was determined by measuring each sample at 620 nm (the absorbance maximum for Evans blue dye in formamide) and 740 nm (the absorbance minimum). The concentration of dye in the extracts was calculated from a standard curve of Evans blue dye in formamide. […]

[2] = tested on: retinal vascular permeability; assay: Qualitative evaluation of retinal vascular permeability with 20-kDa FITC conjugated dextran; assay type: in vivo, Brown Norway rats; conditions: flat-mount retinas, VEGF-injected eyes with or without aprotinin
Experimental: Retinal vascular permeability was documented in a histological manner by intravenous injection of 20-kDa FITC conjugated dextran (50 mg/Kg, Sigma Aldrich). Rats were sacrificed 30 minutes later with intracardiac perfusion of 4% paraformaldehyde to fix the dextran conjugate in the tissues. The retinas were carefully dissected and flat mounted in anti-fading medium (Vector Laboratories). Flat-mount retinas were examined by fluorescent microscopy. Digital color enhancement (green) was equally applied to all images for improved visualization of fluorescence.

[3] = tested on: VEGF-induced retinal leukostasis; assay: Concanavalin A ex vivo retinal leukostasis quantification, VEGF-induced; assay type: in vivo, Brown Norway rats
Experimental: as §1
Deep anesthesia was induced with xylazine and ketamine as above. The chest cavity was carefully opened and the left ventricle was entered with a 14-gauge perfusion cannula fixed to a vessel clamp; care was taken to avoid ventricular obstruction. The right atrium was opened with a 12-gauge needle to achieve outflow. With the heart providing the motive force, 250 ml/kg PBS (roughly 30 ml of PBS quickly) was perfused to clear erythrocytes and non-sticking leukocytes, followed by perfusion with FITC-coupled Concanavalin A lectin (20 μg/ml in PBS, pH 7.4, total concentration 5 mg/kg) (Vector Labs, Burlingame, Calif.). The latter stained adherent leukocytes and the vascular endothelium. Lectin staining was followed by PBS perfusion (30 ml quickly).
The retinas were flat-mounted in a water-based fluorescence-anti-fading medium (Southern Biotechnology, Birmingham, Ala.) and imaged via fluorescence microscopy (Leica upright microscope, Hamamatsu digital high sensitivity camera, openlab imaging software). The total number of adherent leukocytes per retina was counted in a masked fashion.

[4] = tested on: murine brain microvascular endothelial cells (bEND3); assay: Transendothelial electrical resistance (TEER), in vitro model of the BBB; assay type: cell-based; conditions: AZ 25 μg/ml, VEGF 100 ng/ml
Experimental: The purpose of this experiment was to investigate the direct effects of VEGF and/or AZ on the BBB. This study used an in vitro model of the BBB in which transendothelial electrical resistance (TEER) in barrier-privileged murine brain microvascular endothelial cells (bEND3) was measured. The results provide support that the direct effects of VEGF and AZ on the endothelium of the BBB, although related, may be distinct.
Murine brain microvascular endothelial cells (bEND3) were grown on 0.4 μm fibronectin-coated inserts in 24-well plates (BD Bioscience, San Jose, Calif.). After the cells reached confluency, the cells were stimulated with AZ (AZ, 25 μg/ml), VEGF (100 ng/ml) or both. Electrical resistance was measured at the indicated time-points after the treatment by using a volt-ohmmeter (EVOM, World Precision Instruments, Sarasota, Fla.) with the electrode reproducibly positioned in each well. Transendothelial electrical resistance (TEER) values for each Transwell were calculated by subtracting the electrical resistance of the blank wells (coated filters without cells) prepared and treated as the experimental samples. All experiments were carried out in quadruplicate. The results were expressed as Mean±SEM from n=4 independent experiments.

[5] = tested on: retinal vascular permeability (blood retina barrier); assay: Evans Blue BRB breakdown after intravitreal azurocidin; assay type: in vivo, Brown Norway rats; conditions: intravitreal 20 μg
Experimental: as §1
Rats received intravitreous injections of 5 μl of sterile phosphate-buffered saline (PBS) containing 20 μg human neutrophil azurocidin (Athens Research and Biotechology, Atlanta, Ga.) in one eye and 5 μl of sterile phosphate-buffered saline (PBS) in the contralateral eye. The retinas were analyzed 45 minutes, 3 hours, and 24 hours after azurocidin injection.
Retinal vascular permeability was quantified as previously described (Qaum et al. (2002) supra, Xu et al. (2001) INVEST. OPHTHALMOL. VIS. SCI. 42; 789-94). After the animals were deeply anesthetized, Evans blue dye (Sigma) dissolved in normal saline (30 mg/ml) was injected through the tail vein over 10 seconds at a dosage of 45 mg/kg. Blood samples were obtained from the left ventricle, just before perfusion at 2 hours, to obtain the time-average Evans blue dye plasma concentration. These blood samples were centrifuged at 12,000 rpm for 15 minutes and diluted to 1/10,000th of their initial concentration in formamide (Sigma). The background-subtracted absorbance was determined by measuring each sample at 620 nm (the absorbance maximum for Evans blue dye in formamide) and 740 nm (the absorbance minimum) with a spectrophotometer. The concentration of dye in the plasma was calculated from a standard curve of Evans blue dye in formamide. After the dye had circulated for 2 hours, the chest cavity was opened, and the rats were perfused through the left ventricle with 1% paraformaldehyde in citrate buffer (0.05 M, pH 3.5) at a physiological pressure of 120 mm Hg. The retinas were then carefully dissected under an operating microscope. After measurement of the retinal weight, Evans blue dye was extracted by incubating each retina in 0.180 ml of formamide for 18 hours at 70° C. The extract was ultracentrifuged at a speed of 14,000 rpm for 60 minutes at 25° C. Sixty microliters of the supernatant was used for spectrophotometric measurement at 620 nm and 740 nm. The background-subtracted absorbance was determined by measuring each sample at 620 nm (the absorbance maximum for Evans blue dye in formamide) and 740 nm (the absorbance minimum). The concentration of dye in the extracts was calculated from a standard curve of Evans blue dye in formamide. Blood-retinal barrier breakdown was calculated as previously described (Qaum et al (2002) supra, Xu et al. (2001) supra). Briefly, as mentioned, the optical density of the formamide containing tissue-extracted Evans Blue dye and that of the animals' plasma were measured at two different wavelengths (620 and 740 nm). The values were then inserted into the following equation. [formula] Results were expressed as a percentage of the value in control eyes. As used through each of Examples 1 -12, the units for results from the EB technique are μl plasma/g retina/h. Ex Vivo Quantification of Retinal Leukostasis

Molecule	anticipated release of AZ from leukocytes (isolated leukocytes)	BRB breakdown as percentage of the value in control eyes [1]	Evans Blue retinal leakage in VEGF-injected eye ([1]; PBS eye 9.6±1.4 (VEGF alone), 5.4±1.4 (with aprotinin))	fold increase in retinal vascular leakage compared to the PBS injected eye ([1]; aprotinin i.v. 50,000KIU every eight hours, antibody 1 μg intravitreal 6 hours after VEGF)	retinal distribution of intravenously injected 20 kDa FITC-conjugated dextran [2]	leukocyte adhesion as a percentage of leukocyte adhesion in the contralateral PBS-injected eye ([3]; 24 hours after 50 ng VEGF, aprotinin 50,000 KIU i.v. 1 hour before, 8 and 16 hours after)	fold increase in total number of leukocytes adherent to the retina vessels compared to PBS-injected eyes ([3]; intravitreal 50 ng VEGF, 24 hours post injection)	TEER after 6 hours until 24 hours after treatment [4]	TEER up to 6 hours after treatment [4]	TEER, first 30 minutes after incubation [4]	time course of increase in retinal vascular permeability [5]	Evans Blue retinal leakage ([5]; 3 to 5 hours post injection, PBS eye 8.3±1.4)	fold increase in Evans Blue retinal leakage compared to control eyes ([5]; 3 to 5 hours post injection, n=11)	Evans Blue retinal leakage ([5]; 24 hours post-injection, PBS eye 8.7±1.8)	fold increase in Evans Blue retinal leakage compared to control eyes ([5]; 24 hours post-injection, n=6)	fold increase in Evans Blue retinal leakage compared to control eyes ([5]; approximately one to three hours after injection, n=8)	Evans Blue retinal leakage ([5]; one to three hours after injection, PBS eye 5.8±1.4)
VEGF	induces the release of AZ from leukocytes	320%±74	29.7±7.5 μl plasma/g retina/h	3.2±0.74 fold	fluorescence diffusely distributed throughout the retinal tissues at both intraluminal and extravascular locations	308%	3 fold	showed no sign of recovery in the TEER values	remained at the reduced levels until 6 hours after treatment	rapid and significant drop of resistance	–	–	–	–	–	–	–
B1	–	–	–	–	–	–	–	started to recover to normal levels and reached higher values than untreated control	remained at the reduced levels until 6 hours after treatment	rapid and significant drop of resistance	with a peak one to three hours post administration	21±2.3 μl plasma/g retina/h	2.7 fold	16.5±2.8 μl plasma/g retina/h	1.7 fold	7.7 fold	45±17 μl plasma/g retina/h
